Measured values published in publication PMC4861708 (Frontiers in Cell and Developmental Biology, 2016).
Read-outs that look alike come from different tables or passages of the source. Where a SMILES comes first, the peptide text is derived from it. [ ]: non-standard residue; d: D form. The star is where a group is joined. Orn(α-tetramethylguanidino) = CN(C)C(=N[C@@H](CCCN)C(=O)*)N(C)C; Orn = NCCC[C@H](N)C(=O)O

How the values were obtained:
HEK293 cells = tested on: HEK293 cells; set-up: method as in Berthold et al., 2013; Bluhm et al., 2015; details: ref Berthold et al., 2013, Bluhm et al., 2015; cited from earlier work
[1] = tested on: Primary rat cardiomyocytes; set-up: method as in Berthold et al., 2013; Bluhm et al., 2015; details: ref Berthold et al., 2013, Bluhm et al., 2015; cited from earlier work
[2] = tested on: Escherichia coli ATCC25922; set-up: method as in unpublished data; details: mouse infection models with E. coli ATCC25922, doses of only 0.6 mg/kg; ref unpublished data; cited from earlier work
in vitro [3] = details: mouse, mouse serum
Description: Peptide solutions (1 g/L) were added to mouse serum to obtain final concentrations of 70 mg/L peptide and incubated under constant shaking at 37°C. After 0, 1, 2, 3, and 6 h aliquots (95 μL) were precipitated with aqueous TCA (25 μL, 15% w/v), incubated for 10 min on ice, and centrifuged (5 min, 12,000 × g, Eppendorf mini spin centrifuge). An aliquot of the supernatant (95 μL) was neutralized with sodium hydroxide (8 μL, 1 mol/L) and diluted with aqueous acetonitrile solution (3% acetonitrile, 0.1% TFA; 200 μL). Peptides were quantified by the peak areas obtained by analytical RP-HPLC on a Jupiter C18-column (ID: 2 mm) using a linear aqueous acetonitrile gradient with 0.1% (v/v) TFA (absorbance recorded at 214 nm). Peak areas of all time points were normalized to the initial peak area obtained after “0 min incubation” (= 100%). Experiments were carried out as triplicates in parallel and half-life times were calculated using GraphPad Prism 5.0.

[4] = tested on: Primary rat cardiomyocytes; assay: in vitro; type: cell-based; details: 24 h
Description: (§1) Human embryonic kidney (HEK293) and HeLa cells were cultured in Dulbecco's modified Eagle's/Ham's F-12 medium [DMEM/F-12 (1:1)] supplemented with FBS (10% v/v), penicillin, and streptomycin (1000 units each). Primary rat cardiomyocytes (Innoprot, Elexalde Derio, Spain) were grown in medium supplemented with FBS (20% v/v), horse serum (5% v/v), L-glutamine (2 mmol/L), sodium pyruvate (2 mmol/L), MEM non-essential amino acids (Gibco, 0.1 mmol/L), penicillin, and streptomycin (1000 units each). Surfaces for cardiomyocyte growth were coated with attachment factor first. Cells (20,000/well) were seeded into a 96-well plate (PS, sterile, flat bottom), incubated for 24 h (37°C, 5% CO2), and washed twice with PBS (100 μl/well) prior to adding colorless medium (88 μL) and peptide solution (12 μL; 5, 2.5, 1.25, […], and 0.625 g/L in PBS). Positive controls were triton X-100 (1%, v/v) and melittin (60 mg/L) as lytic peptide, whereas PBS (12%, v/v) served as negative control. After an incubation period of 24 h, supernatant (25 μL) was mixed with lactate dehydrogenase (LDH) substrate (175 μL; 0.57 mmol/L sodium pyruvate, 0.24 mmol/L NADH disodium salt, 32 mmol/L potassium dihydrogen phosphate, 66 mmol/L dipotassium phosphate) in 96-well plates (PS, sterile, flat bottom). Absorbance was recorded at 340 nm every 3 min for 30 min on the Paradigm microplate reader. Due to the total release of LDH upon triton X-100 treatment, the control contained high LDH concentrations resulting in a fast substrate turnover that was only linear for the first 6 min.
(§2) The MTT cell viability assay relied on the same cell culture. Remaining medium was replaced by a mixture of fresh colorless medium (100 μL) and MTT (10 μL; 5 g/L in PBS) and incubated for 4 h (37°C, 5% CO2). A solution of sodium dodecyl sulfate (100 μL; 10%, w/v) dissolved in hydrochloric acid (10 mmol/L) was added, incubated (16 h), and the absorbance recorded at 590 nm relative to the reference at 650 nm (Paradigm microplate reader). The relative cell viability was calculated by [(ODPeptide − ODTriton)/(ODPBS − ODTriton)] × 100% and half-maximal inhibitory concentrations (IC50) with an Excel-template from cell biology protocols (www.sciencegateway.org/ protocols/cellbio/drug/hcic50.htm). For statistical analysis an unpaired t-test was applied using GraphPad Prism 5.0.

in vitro [5] = type: cell-based, rat; details: rat
Description: as §1, §2

human erythrocytes = assay: Hemolysis assay; type: cell-based; details: 0.1 g/L peptide, 1 h
Description: Human EDTA blood (S-Monovette® with potassium-EDTA Sarstedt AG, Nümbrecht, Germany) was centrifuged (3 min, 300 × g, 4°C) and blood cells were washed three times using the 10-fold volume of cold PBS. The diluted blood cell suspension (2% v/v in PBS, 50 μL) was mixed with a peptide solution (1.2 or 0.2 g/L in PBS, 50 μL) or triton X-100 (1%, v/v in PBS; control) in 96-well plates (PP, V-bottom). After incubation under constant shaking (1 h, 37°C, 300 rpm, Eppendorf Thermomixer) the suspension was centrifuged (3 min, 4°C, 1000 × g) and the OD405 of the supernatant was measured in a 384-well plate (PS, flat bottom, Paradigm microplate reader, Molecular Devices, Sunnyvale, USA). The hemolytic grade (HG) was calculated as [(ODPeptide−ODPBS)/(ODTriton−ODPBS)] × 100%.

HeLa cells [6] = type: cell-based; details: 24 h
Description: as §1, with “Due to the total release of LDH upon triton X-100 treatment, the control contained high LDH concentrations resulting in a fast substrate turnover that was only linear for the first 6 min.” left out

HeLa cells [7] = assay: Flow cytometry, cell uptake of Cf-labeled peptides; type: cell-based; details: flow cytometry (abstract)
Description: HeLa cells (50,000 for endocytosis inhibition and 70,000 for uptake kinetics) suspended in DMEM/F-12 medium (300 μL; see above) were seeded into 48-well plates (PS, sterile, flat bottom) and incubated (23 ± 1 h) using the conditions described above. Cells were washed twice with PBS (300 μL/well) and fresh medium was added (144 μL).
Peptide solutions (6 μL; 1 mmol/L in H2O) were added to achieve a concentration of 40 μmol/L at different time points. Cells were washed three times with PBS (300 μL/well), treated with trypsin (75 μL; 0.05% w/v trypsin, 5 min, 37°C), rinsed off the plate using cold PBS (600 μL/well), and trypsin was removed by two washing steps (400 × g, 4°C, 4 min, 600 μL PBS each). Cells were suspended in PBS (0.1 mL) containing eFluor660 (1000 × diluted in PBS) and incubated on ice in the dark. After 30 min, cells were washed with cold PBS twice, suspended in formaldehyde (100 μL; 2% w/v in PBS), incubated (15 min, RT), washed (200 μL PBS), stored in FACS buffer (200 μL; 3% FBS, 0.1% NaN3 in PBS) overnight, and analyzed on a FACSCalibur (Becton Dickinson, New Jersey, USA). Alternatively, cells were fixed directly without prior eFluor660 staining.

[8] = Half-life time against serum proteases, serum (abstract)
[9] = Half-life time mouse serum, 37°C

For `CC[C@H](C)[C@H](NC(=O)[C@H](Cc1ccc(O)cc1)NC(=O)[C@@H](NC(=O)[C@@H]1CCCN1C(=O)[C@H](CCCNC(=N)N)NC(=O)[C@H](CC(N)=O)NC(=O)[C@H](CC(N)=O)NC(=O)[C@H](CCCN)N=C(N(C)C)N(C)C)C(C)C)C(=O)N1CCC[C@H]1C(=O)N[C@@H](CCCNC(=N)N)C(=O)N1CCC[C@H]1C(=O)N[C@@H](CCCNC(=N)N)C(=O)N1CCC[C@H]1C(=O)N1CCC[C@H]1C(=O)N[C@@H](Cc1c[nH]cn1)C(=O)N1CCC[C@H]1C(=O)N[C@@H](CCCNC(=N)N)C(=O)N[C@@H](CC(C)C)C(=O)O` [Api137, gu-ONNRPVYIPRPRPPHPRL-OH, reference compound] ({Orn(α-tetramethylguanidino)}-NNRPVYIPRPRPPHPRL-OH), which “IC50 on cell viability” value (HEK293 cells) is on record?
Its value is greater than 0.6 g/L.

And the “IC50 on cell viability” value [1]?
Its value is greater than 0.6 g/L.

And the survival rate [2]?
The survival rate was 100%.

For `CC[C@H](C)[C@H](NC(=O)[C@H](CCCN)N=C(N(C)C)N(C)C)C(=O)N[C@@H](CCCN)C(=O)N[C@H](C(=O)N[C@@H](CCCN)C(=O)N[C@@H](CCCNC(=N)N)C(=O)N1CCC[C@H]1C(=O)N[C@H](C(=O)N[C@@H](Cc1ccc(O)cc1)C(=O)N[C@@H](CCCN)C(=O)N1CCC[C@H]1C(=O)N[C@@H](CCCNC(=N)N)C(=O)N1CCC[C@H]1C(=O)N[C@@H](CCCNC(=N)N)C(=O)N1CCC[C@H]1C(=O)N1CCC[C@H]1C(=O)N[C@@H](Cc1c[nH]cn1)C(=O)N1CCC[C@H]1C(=O)N[C@@H](CCCNC(=N)N)C(=O)N[C@@H](CC(C)C)C(=O)O)C(C)C)[C@@H](C)CC` [Api795, gu-O(IO)2RPVYOPRPRPPHPRL-OH] ({Orn(α-tetramethylguanidino)}-I[Orn]I[Orn]RPVY[Orn]PRPRPPHPRL-OH), which half-life at 70 mg/L (in vitro [3]; [8]) is on record?
The half-life at 70 mg/L was greater than 300 min.

And the half-life at 70 mg/L (in vitro [3]; [9])?
The half-life at 70 mg/L was 354 min.

What about the “IC50 on cell viability” value [4] of the same molecule?
Its value is greater than 0.6 g/L.

And the viability at 24 h, 0.6 g/L (in vitro [5])?
The viability at 24 h, 0.6 g/L was 83 ± 4%.

With `CC(C)C[C@H](NC(=O)[C@H](CCCNC(=N)N)NC(=O)[C@@H]1CCCN1C(=O)[C@H](Cc1c[nH]cn1)NC(=O)[C@@H]1CCCN1C(=O)[C@@H]1CCCN1C(=O)[C@H](CCCNC(=N)N)NC(=O)[C@@H]1CCCN1C(=O)[C@H](CCCNC(=N)N)NC(=O)[C@@H]1CCCN1C(=O)[C@H](CCCN)NC(=O)[C@H](Cc1ccc(O)cc1)NC(=O)[C@@H](NC(=O)[C@@H]1CCCN1C(=O)[C@H](CCCNC(=N)N)NC(=O)[C@H](CCCN)NC(=O)[C@H](Cc1c[nH]c2ccccc12)NC(=O)[C@H](CCCN)NC(=O)[C@H](Cc1c[nH]c2ccccc12)NC(=O)[C@H](CCCN)NC(=O)[C@H](Cc1c[nH]c2ccccc12)NC(=O)[C@H](CCCN)N=C(N(C)C)N(C)C)C(C)C)C(=O)O` [Api794, gu-O(WO)3RPVYOPRPRPPHPRL-OH] ({Orn(α-tetramethylguanidino)}-W[Orn]W[Orn]W[Orn]RPVY[Orn]PRPRPPHPRL-OH) as the molecule, how does the half-life at 70 mg/L (in vitro [3]; [8]) read?
The half-life at 70 mg/L was greater than 300 min.

And the half-life at 70 mg/L (in vitro [3]; [9])?
Its half-life at 70 mg/L is 311 min.

What about the Hemolytic grade (human erythrocytes) of the same molecule?
Its Hemolytic grade is 1.7 ± 0.2%.

What about the “EC50 of LDH release” value (HeLa cells [6]) of the same molecule?
The value was 0.56 ± 0.16 g/L.

And the “IC50 on cell viability” value [4]?
Its value is greater than 0.6 g/L.

What about the viability at 24 h, 0.6 g/L (in vitro [5]) of the same molecule?
The viability at 24 h, 0.6 g/L was 64 ± 3%.

And the “higher uptake compared with Api795” value (HeLa cells [7])?
The value was 50%.
